Laboratory results taken from article PMC7150891, “Mertansine Inhibits mRNA Expression and Enzyme Activities of Cytochrome P450s and Uridine 5′-Diphospho-Glucuronosyltransferases in Human Hepatocytes and Liver Microsomes” (Pharmaceutics, 2020).
Entries after “also recorded” stand apart in the source; their conditions may differ.

How the values were obtained:
[1] = rats, intravenous [3H]-mertansine 0.2 mg/kg, cited from earlier work
UGT1A6 = biological target: T1, UGT1A6 (Homo sapiens, UniProt P19224); assay: Inhibition of UGT1A6-catalyzed N-acetylserotonin β-D-glucuronidation in ultrapooled human liver microsomes; type: in vitro ADME
T1 construct: ultrapooled human liver microsomes (0.2 mg/mL); from tissue; host or cells: human liver microsomes (ultrapooled)
Method: The inhibitory potential of mertansine on UGT1A1, UGT1A3, UGT1A4, UGT1A6, UGT1A9, and UGT2B7 activities was evaluated using liquid chromatography–tandem mass spectrometry (LC-MS/MS) with a cocktail of UGT substrates and ultrapooled human liver microsomes. Each incubation mixture was prepared to a final volume of 100 μL as follows: ultrapooled human liver microsomes (0.2 mg/mL), 5 mM UDPGA, 10 mM magnesium chloride, alamethicin (25 μg/mL), 50 mM Tris buffer (pH 7.4), various concentrations of mertansine in methanol (final concentrations of 0.01–50 μM), and the cocktail sets of UGT enzyme-specific substrates. Two cocktail sets were used: set A contained 0.5 μM SN-38 for UGT1A1, 2 μM chenodeoxycholic acid for UGT1A3, and 0.5 μM trifluoperazine for UGT1A4; and set B contained 1 μM N-acetylserotonin for UGT1A6, 0.2 μM mycophenolic acid for UGT1A9, and 1 μM naloxone for UGT2B7. The reactions were initiated by adding UDPGA and incubated in a shaking water bath for 60 min at 37 °C. Reactions were terminated by adding 50 μL of ice-cold acetonitrile containing internal standards (IS, propofol glucuronide for set A and meloxicam for set B). Incubation mixtures were centrifuged at 13,000 g for 8 min at 4 °C. Next, 50 μL of each supernatant of sets A and B was mixed, and aliquots (5 μL) were analyzed using LC-MS/MS. […]

CYP2B6 = assay: CYP2B6-catalyzed bupropion hydroxylase activity in human hepatocytes after 48 h treatment
Method: Samples were incubated for 48 h at 37 °C in 5% CO2, and the medium was exchanged with 250 μL of fresh medium containing drugs or the vehicle every 24 h.
The effects of mertansine on CYP1A2, CYP2B6, and CYP3A4 activities were evaluated. […] Mixtures were vortexed for 2 min and then centrifuged at 13,000 g for 4 min at 4 °C. The supernatant (40 µL) was diluted with 60 µL of deionized water and then mixed for 2 min by vortexing. An aliquot (5 µL) was analyzed using LC-MS/MS [37], and CYP1A2, CYP2B6, and CYP3A4 enzyme activities were expressed as formation rates (pmol/million cells/min).
The percentage changes in enzymatic activities were calculated as (CYP activity with test compound treatment/CYP activity with vehicle control treatment) × 100. The IC50 (the concentration of the inhibitor needed for half-maximal inhibition) values were calculated using SigmaPlot ver. […] Ki (the inhibition constant) and the inhibition mode of UGT1A1, UGT1A3, and UGT1A4 activities were determined using Enzyme Kinetics ver. 1.1 (Systat Software, Inc.).

CYP2C8 = tested on: CYP2C8; set-up: method as in PMID 25048520, PMID 22752008; details: human liver microsomes, competitive; read-out: Ki, CYP2C8-mediated paclitaxel 6α-hydroxylation; cited from earlier work
[2] = tested on: CYP2B6 mRNA (suppression of expression); assay: CYP2B6 mRNA level in human hepatocytes after 48 h treatment (RT-PCR); type: cell-based; details: 1.25–2500 nM
Description: (§1) 12.5 (Systat Software, Inc.; San Jose, CA, USA). […] 1.1 (Systat Software, Inc.).

CYP2B6 mRNA = assay: as above; type: cell-based; details: Mean ± SD of three human hepatocyte lots, 48 h, 1.25–2500 nM, read-out: IC50, suppression of CYP2B6 mRNA expression
Description: as §1

[3] = tested on: CYP1A2 mRNA (suppression of expression); assay: CYP1A2 mRNA level in human hepatocytes after 48 h treatment (RT-PCR); type: cell-based; details: 1.25–2500 nM
Description: as §1

[4] = human hepatocytes Lot 319, 48 h
[5] = human hepatocytes Lot 321, 48 h
[6] = human hepatocytes Lot 361, 48 h

T1 sequence (P19224 27-532): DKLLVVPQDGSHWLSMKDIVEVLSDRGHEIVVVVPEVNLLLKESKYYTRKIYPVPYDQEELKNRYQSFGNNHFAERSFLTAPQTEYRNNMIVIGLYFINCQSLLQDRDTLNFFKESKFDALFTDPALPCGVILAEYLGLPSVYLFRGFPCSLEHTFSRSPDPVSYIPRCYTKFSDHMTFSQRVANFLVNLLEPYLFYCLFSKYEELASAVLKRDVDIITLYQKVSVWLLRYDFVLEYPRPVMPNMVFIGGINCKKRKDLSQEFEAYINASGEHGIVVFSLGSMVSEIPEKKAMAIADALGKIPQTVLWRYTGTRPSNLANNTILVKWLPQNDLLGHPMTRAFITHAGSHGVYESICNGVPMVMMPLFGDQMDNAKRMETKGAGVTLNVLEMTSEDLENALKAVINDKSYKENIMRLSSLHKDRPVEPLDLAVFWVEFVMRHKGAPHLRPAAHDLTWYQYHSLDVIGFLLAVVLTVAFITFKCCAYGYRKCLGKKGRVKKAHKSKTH

COc1cc2cc(c1Cl)N(C)C(=O)CC(OC(=O)C(C)N(C)C(=O)CCS)C1(C)OC1C(C)C1CC(O)(NC(=O)O1)C(OC)C=CC=C(C)C2 (stereo not shown) [mertansine, Mertansine]
Tissue-to-blood radioactivity ratios ([1]; highly perfused organs, for 24 h): 1~11
Biliary excretion of dosed radioactivity ([1]; over 72 h): ~ 46%
Dosed radioactivity recovered in urine ([1]; over 120 h): 5%
Inhibition of UGT1A6 enzyme activity (UGT1A6; human liver microsomes, mertansine at 50 µM): no inhibition; also recorded: negligibly inhibited
IC50, N-acetylserotonin β-D-glucuronidation (UGT1A6) (UGT1A6; ultrapooled human liver microsomes, 1 µM N-acetylserotonin (cocktail)): No inhibition
Mean decrease of CYP2B6-mediated bupropion hydroxylase activity (CYP2B6; highest concentration (2500 nM), 48 h, mean of three human hepatocytes): 63.5%
Decrease of CYP2B6-mediated bupropion hydroxylase activity compared to vehicle (CYP2B6; mertansine 48 h, three human hepatocytes): 23.9–93.1%
Ki (CYP2C8): 11000 nM
IC50 at 48 h [2, 4]: 25 nM
IC50 at 48 h [2, 5]: 57.8 nM
IC50 at 48 h [2, 6]: 27.6 nM
IC50 at 48 h (CYP2B6 mRNA): 36.8 ± 18.3 nM
IC50 at 48 h ([3]; Mean ± SD of three human hepatocyte lots, 48 h): 93.7 ± 109 nM
IC50 at 48 h [3, 4]: 220 nM
IC50 at 48 h [3, 5]: 34.3 nM
IC50 at 48 h [3, 6]: 27.3 nM
